Columns and labels:
[1] = target: T1, Heme-free sGC (recombinant soluble guanylate cyclase) (Rattus norvegicus, UniProt P20595); assay: Stimulation of recombinant soluble guanylate cyclase (sGC) in vitro, heme-free enzyme; type: biochemical
T1 construct: made in house
T1 sequence (P20595 1-619): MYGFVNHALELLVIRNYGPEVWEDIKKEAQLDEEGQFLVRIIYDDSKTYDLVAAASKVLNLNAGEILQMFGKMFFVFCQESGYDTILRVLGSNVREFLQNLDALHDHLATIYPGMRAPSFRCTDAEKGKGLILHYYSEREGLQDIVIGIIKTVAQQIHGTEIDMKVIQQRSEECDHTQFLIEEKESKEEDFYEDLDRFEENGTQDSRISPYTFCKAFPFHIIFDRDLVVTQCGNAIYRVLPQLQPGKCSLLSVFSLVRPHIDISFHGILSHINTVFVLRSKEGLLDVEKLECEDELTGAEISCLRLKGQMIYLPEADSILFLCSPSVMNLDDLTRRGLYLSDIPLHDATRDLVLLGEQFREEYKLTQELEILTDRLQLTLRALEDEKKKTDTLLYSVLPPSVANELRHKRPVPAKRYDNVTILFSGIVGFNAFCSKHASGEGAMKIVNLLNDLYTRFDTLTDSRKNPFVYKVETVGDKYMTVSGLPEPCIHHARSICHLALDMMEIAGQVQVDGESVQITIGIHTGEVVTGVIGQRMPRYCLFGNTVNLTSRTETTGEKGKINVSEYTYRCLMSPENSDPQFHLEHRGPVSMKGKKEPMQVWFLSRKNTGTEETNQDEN
T1 sequence (P19686 1-690 partner): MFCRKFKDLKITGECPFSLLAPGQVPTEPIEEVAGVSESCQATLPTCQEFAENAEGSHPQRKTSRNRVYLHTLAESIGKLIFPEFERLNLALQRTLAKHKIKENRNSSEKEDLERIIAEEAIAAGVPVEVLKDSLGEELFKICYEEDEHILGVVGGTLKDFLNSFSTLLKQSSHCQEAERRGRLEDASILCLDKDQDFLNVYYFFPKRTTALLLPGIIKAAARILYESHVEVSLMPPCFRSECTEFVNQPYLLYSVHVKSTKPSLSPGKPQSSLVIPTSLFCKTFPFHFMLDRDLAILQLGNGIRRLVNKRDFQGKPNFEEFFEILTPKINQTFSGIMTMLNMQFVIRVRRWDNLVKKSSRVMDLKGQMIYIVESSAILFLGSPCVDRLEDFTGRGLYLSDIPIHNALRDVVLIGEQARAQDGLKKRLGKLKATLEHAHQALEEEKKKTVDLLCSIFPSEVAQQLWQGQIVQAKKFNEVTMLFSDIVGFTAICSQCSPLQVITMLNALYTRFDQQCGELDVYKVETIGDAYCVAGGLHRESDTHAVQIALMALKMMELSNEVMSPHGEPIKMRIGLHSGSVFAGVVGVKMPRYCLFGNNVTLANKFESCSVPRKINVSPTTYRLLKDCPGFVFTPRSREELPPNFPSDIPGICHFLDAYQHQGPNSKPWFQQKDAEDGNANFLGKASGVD
Procedure: Investigations on the stimulation of recombinant soluble guanylate cyclase (sGC) by the compounds according to the invention with and without sodium nitroprusside, and with and without the heme-dependent sGC inhibitor 1H-1,2,4-oxadiazole-(4,3a)-quinoxalin-1-one (ODQ) are carried out by the method described in detail in the following reference: M. Hoenicka, E. M. Becker, H. Apeler, T. Sirichoke, H. Schroeder, R. Gerzer and J.-P. Stasch, “Purified soluble guanylyl cyclase expressed in a baculovirus/Sf9 system: Stimulation by YC-1, nitric oxide, and […]”, J. Mol. Med. 77 (1999), 14-23. The heme-free guanylate cyclase is obtained by adding Tween 20 to the sample buffer (0.5% in the final concentration).
The activation of sGC by a test substance is reported as n-fold stimulation of the basal activity.

[2] = tested on: spontaneously hypertensive rats (SH rats); assay: Radiotelemetric measurement of blood pressure and heart rate on conscious SH rats; type: in vivo; conditions: oral administration of 10 mg/kg
Procedure: A commercially available telemetry system from Data Sciences International DSI, USA, is employed for the measurements on conscious SH rats described below.
The system consists of 3 main components: (1) implantable transmitter, (2) receiver which is linked via a multiplexer to a (3) data acquisition computer. The telemetry system makes it possible to record continuously the blood pressure and heart rate on conscious animals in their usual habitat.
The investigations are carried out on adult female spontaneously hypertensive rats (SH rats) with a body weight of >200 g. After transmitter implantation, the experimental animals are housed singly in type 3 Makrolon cages. They have free access to standard feed and water. […]
In the standard procedure, the following are measured for 10-second periods in each case: (1) systolic blood pressure (SBP), (2) diastolic blood pressure (DBP), (3) mean arterial pressure (MAP) and (4) heart rate (HR).
Measurement acquisition is repeated under computer control at 5-minute intervals. The source data obtained as absolute value are corrected in the diagram with the currently measured barometric pressure and stored in individual data. […]
The test substances are administered at 9.00 h on the day of the experiment. Following the administration, the parameters described above are measured over 24 hours. […]

Stimulation (n-fold) Heme-free sGC Basal ([1]; 0.001 μM Example 6): 3.2 n-fold
Stimulation (n-fold) Heme-free sGC +10 μM ODQ ([1]; 0.001 μM Example 6 + 10 μM ODQ): 3.0 n-fold
Stimulation (n-fold) Heme-free sGC Basal ([1]; 0.01 μM Example 6): 20.4 n-fold
Stimulation (n-fold) Heme-free sGC +10 μM ODQ ([1]; 0.01 μM Example 6 + 10 μM ODQ): 18.9 n-fold
Stimulation (n-fold) Heme-free sGC Basal ([1]; 0.1 μM Example 6): 90.9 n-fold
Stimulation (n-fold) Heme-free sGC +10 μM ODQ ([1]; 0.1 μM Example 6 + 10 μM ODQ): 89.7 n-fold
Stimulation (n-fold) Heme-free sGC Basal ([1]; 1 μM Example 6): 143.8 n-fold
Stimulation (n-fold) Heme-free sGC +10 μM ODQ ([1]; 1 μM Example 6 + 10 μM ODQ): 143.8 n-fold
Stimulation (n-fold) Heme-free sGC Basal ([1]; 10 μM Example 6): 145.9 n-fold
Stimulation (n-fold) Heme-free sGC +10 μM ODQ ([1]; 10 μM Example 6 + 10 μM ODQ): 149.3 n-fold
SMILES: CC(C)(C)c1ccc(COc2ccccc2/C=C/C(CCc2ccc(-c3nnn[nH]3)cc2)Cc2ccc(C(=O)O)cc2)cc1 (single isomer, unassigned) [Example 6, 4-((3E)-4-{2-[(4-tert-Butylbenzyl)oxy]phenyl}-2-{2-[4-(1H-tetrazol-5-yl)phenyl]ethyl}but-3-en-1-yl)benzoic acid]
Period of blood pressure reduction [2]: 11 h
Reduction in blood pressure [2]: marked reduction in blood pressure

Source: patent US8183271B2, “Tetrazole derivatives and their use for the treatment of cardiovascular diseases” (Bayer Intellectual Property GmbH, priority 2005, dated 2012)
